{"source": "patent US5817640A", "about": "(Gensia Pharmaceuticals, priority 1995, dated 1998)", "format_in_all_cases": "in vivo, human", "key": {"[1]": {"tested_on": "patients undergoing coronary artery bypass graft (CABG) surgery", "experiment": "Ejection fraction and hemodynamics (Phase 2)", "description": "(§1) During surgery, anesthesia was maintained by continuous infusion of fentanyl and midazolam. Routine clinical parameters were recorded using standard operating room monitoring equipment. Continuous 2-lead Holter ECG and TEE data were recorded. Standard surgical procedures (e.g., aorta cross-clamping, crystalloid cardioplegia, cardio-pulmonary bypass, hypothermia) were used. Anastomoses were constructed, aorta cross-clamp removed and patients were discontinued from bypass when body temperature was 37° C. The quality of anastomosis was judged by the surgeon. Difficulty in weaning from bypass was judged by need for one or more of the following: pacemaker, return to bypass, balloon pump or vasopressor administration. Hemodynamic measurements, including heart rate, arterial blood pressure, pulmonary capillary wedge pressure and cardiac output, were recorded before sternotomy, 15 and 30 min after bypass and upon chest closure. Radial artery and pulmonary artery pressures, myocardial and whole body temperature, O2 saturation, end-tidal CO2 and arterial blood gases were measured, and ECG recordings were obtained as clinically indicated. Hemodynamic variables (blood pressure, heart rate, pulmonary capillary wedge pressure) were controlled within 20% of baseline using prescribed regimens.\nDuring the post-operative period through the first post-operative day, morphine and midazolam were used for sedation and analgesia. The cardiovascular medications required were recorded. During this period, continuous ECG monitoring (Holter) was performed for up to 48 hours. Hemodynamic measurements (pulmonary artery pressures and cardiac output) were obtained at 2, 4, 8 and 12 hours (in some cases at 24 and 48 hours) and also whenever clinically indicated.\nA twelve-lead ECG was obtained on arrival in the intensive care unit and during post-operative days 1, 2, 3 and at hospital discharge. Creatinine phosphokinase MB band (CK-MB) was obtained every 8 hours for 48 hours and when indicated. Radio-nuclide ventriculography for ejection fraction and wall motion score was done about 14 days post-operation and as close to hospital discharge as possible. Other tests and measurements (e.g., chest x-ray, pulmonary artery wedge pressure (PCWP) were performed when clinically indicated for diagnosis or evaluation of myocardial infarction, or congestive heart failure. Timing and dose of all cardiovascular medications within 48 hours after surgery were recorded. The total dose of all analgesics during the 24-hour post-operative period was recorded. Fluid intake and output (e.g., blood replacement and urine output) were recorded for 48 hours. The type and duration of inotropic support and antiarrhythmic intervention required were recorded through 24 hours after surgery. Two-channel Holter recordings were obtained during 3 periods, the eight hours prior to intubation, from intubation through the end of surgery, and for an additional 24-48 hours after surgery.\n9. Election Fraction. Pre-operative and post-operative ejection fractions were measured using different methodologies; therefore, changes could not be analyzed statistically. Group mean injection fractions and pre- and post-CABG are presented and apparent differences between groups were described.\nResults for ejection fraction, measured on all patients pre-operatively (by angiography) and at the time of discharge from the intensive care unit (by radionuclide ventriculography) are given in Table 10 below."}, "[2]": {"experiment": "Plasma AICA riboside concentrations / pharmacokinetics in CABG patients (Phase 2)", "description": "10. Plasma Levels. […] Individual values and group means were tabulated and drug clearance calculated. Dose proportionality was assessed.\nThe data are also presented graphically in FIG. 3."}, "[3]": {"tested_on": "patients undergoing coronary artery bypass graft (CABG) surgery", "experiment": "Difficulty in weaning from cardiopulmonary bypass (Phase 2)", "conditions": "for Weaning time (cross-clamp removal to termination of bypass): in min (unit assumed); for Weaning difficulty: balloon pump, number of patients / Weaning difficulty: return to bypass, number of patients: placebo 1, p=0.6; for Weaning difficulty: pacemaker, number of patients: placebo 2; for Weaning difficulty: pacemaker, number of patients / Weaning difficulty: other, number of patients / Weaning difficulty: other / Weaning difficulty: pacemaker: p=0.7; for Weaning difficulty: other, number of patients: placebo 5; for Weaning difficulty: vasopressors, number of patients / Weaning difficulty: vasopressors: p=0.19; for Patients with any difficulty weaning, number: placebo 13; for Weaning difficulty: other / Weaning difficulty: pacemaker: placebo […]", "description": "as §1\nThe incidence of adverse clinical outcomes, such as cardiac death (death of patient attributable to primarily cardiac causes, non-fatal transmural MI (as measured by the appearance of a new Q-wave on 12-lead ECG plus a CK-MB value of ≥50 units), non-transmural MI (CK-MB value of ≥50 units), congestive heart failure (low cardiac output requiring intra-aortic balloon pump or left ventricular assist device) or life-threatening dysrhythmia (ventricular fibrillation, or ventricular tachycardia requiring cardioversion or drug treatment) was compared between the placebo and treatment groups. For the diagnosis of myocardial infarction, ECG tracings and CK-MB values were assessed centrally by observers blinded to treatment. The difficulty of weaning the patient from bypass, if any, was compared between placebo and treatment groups by noting need for one or more of the following: pacemaker, return to bypass, balloon pump or use of vasopressors.\n8. Difficulty in Weaning. Patients were considered to have difficulty in weaning if they needed one or more of the following interventions: pacemaker, return to bypass, balloon pump or use of vasopressors. The number of patients receiving each of the above interventions was analyzed using a X^2 and Fisher's exact test, as was the number of patients classified as having difficulty in weaning. In addition, the time to weaning (defined as time from cross-clamp removal to end of bypass) in the patients experiencing difficulty were compared by a 1-way analysis of variance.\nAs noted, patients were determined as being difficult to remove from cardiopulmonary bypass if they required one or more of the following interventions: insertion of a pacemaker, return to bypass, use of a balloon pump or administration of vasopressors, or another intervention which the investigation determines is indicative of difficulty in weaning. […] When a combination of the high and low dose groups were compared to placebo (Table 9b), the reduced need for vasopressor support approached statistical significance (p=0.08). […] There were no differences in any of the weaning difficulty parameters discussed above between the high and low dose groups (Table 9c)."}}, "note": "Entries after “also recorded” stand apart in the source; their conditions may differ."}
{"smiles": "NC(=O)c1ncn([C@@H]2O[C@H](CO)[C@@H](O)[C@H]2O)c1N", "note": "[AICA riboside, 5-amino-1-β-D-ribofuranosyl-imidazole-4-carboxamide]", "values": [{"measurement": "Ejection fraction", "setting": "[1]; 0.05 mg/kg/min group, pre-bypass (pre-operative, LV angiography), placebo 57.6 ± 2.0, p=0.54", "result": "55.0 ± 2.3", "unit": "%"}, {"measurement": "Ejection fraction", "setting": "[1]; 0.05 mg/kg/min, post-bypass (radionuclide ventriculography), placebo 56.5 ± 2.3, p=0.28", "result": "59.0 ± 2.0", "unit": "%"}, {"measurement": "Ejection fraction", "setting": "[1]; 0.10 mg/kg/min group, pre-bypass (pre-operative, LV angiography), placebo 57.6 ± 2.0, p=0.54", "result": "58.4 ± 2.4", "unit": "%"}, {"measurement": "Ejection fraction", "setting": "[1]; 0.10 mg/kg/min, post-bypass (radionuclide ventriculography), placebo 56.5 ± 2.3, p=0.28", "result": "61.3 ± 1.7", "unit": "%"}, {"measurement": "Effect on heart rate and blood pressure", "setting": "[1]; CABG surgery", "result": "no effects of treatment with AICA riboside were seen on these parameters"}, {"measurement": "Ejection fraction vs placebo", "setting": "[1]; post-operative, not statistically significant", "result": "higher mean ejection fractions post-bypass than the placebo group; also recorded: trend towards higher ejection fraction in the high dose AICA riboside group"}, {"measurement": "Steady state plasma concentration", "setting": "[2]; 0.05 mg/kg/min", "result": "approximately 2.5 μg/ml"}, {"measurement": "Mean (±SEM) plasma AICA riboside concentration", "setting": "[2]; 0.05 mg/kg/min constant infusion, n=40, pre-bypass", "result": "2.66 ± 0.30", "unit": "µg/mL"}, {"measurement": "Mean (±SEM) plasma AICA riboside concentration", "setting": "[2]; 0.05 mg/kg/min, n=40, 1 hour post-infusion", "result": "0.32 ± 0.63", "unit": "µg/mL"}, {"measurement": "Mean (±SEM) plasma AICA riboside concentration", "setting": "[2]; 0.05 mg/kg/min, n=40, end infusion", "result": "1.83 ± 0.13", "unit": "µg/mL"}, {"measurement": "Mean (±SEM) plasma AICA riboside concentration", "setting": "[2]; 0.05 mg/kg/min, n=40, post-bypass", "result": "2.49 ± 0.13", "unit": "µg/mL"}, {"measurement": "Steady state plasma concentration", "setting": "[2]; 0.1 mg/kg/min", "result": "~5.0", "unit": "µg/mL"}, {"measurement": "Mean (±SEM) plasma AICA riboside concentration", "setting": "[2]; 0.10 mg/kg/min constant infusion, n=31, pre-bypass", "result": "5.11 ± 0.20", "unit": "µg/mL"}, {"measurement": "Mean (±SEM) plasma AICA riboside concentration", "setting": "[2]; 0.10 mg/kg/min, n=31, 1 hour post-infusion", "result": "0.45 ± 0.03", "unit": "µg/mL"}, {"measurement": "Mean (±SEM) plasma AICA riboside concentration", "setting": "[2]; 0.10 mg/kg/min, n=31, end infusion", "result": "3.67 ± 0.30", "unit": "µg/mL"}, {"measurement": "Mean (±SEM) plasma AICA riboside concentration", "setting": "[2]; 0.10 mg/kg/min, n=31, post-bypass", "result": "5.47 ± 0.19", "unit": "µg/mL"}, {"measurement": "Kinetics (linearity, dose proportionality)", "setting": "[2]; CABG patients, 0.05 and 0.1 mg/kg/min infusion", "result": "exhibits linear kinetics; also recorded: good dose proportionality"}, {"measurement": "Plasma concentration as % of steady state level after end of infusion", "setting": "[2]; one hour after infusion terminated", "result": 10, "unit": "%"}, {"measurement": "Change of CLp during post-bypass period", "setting": "[2]; post-bypass", "result": "trend for the CLp to increase"}, {"measurement": "Dose needed in anesthetized patients, % less than in non-anesthetized patients", "setting": "[2]; to achieve desired blood concentration levels", "result": "20-50%"}, {"measurement": "Weaning time (cross-clamp removal to termination of bypass)", "setting": "[3]; 0.05 mg/kg/min, n=41, all patients, placebo 23 +/- 2.9", "result": "20 +/- 2.2"}, {"measurement": "Weaning difficulty: balloon pump, number of patients", "setting": "[3]; 0.05 mg/kg/min, n=41", "result": 0, "unit": "patients"}, {"measurement": "Weaning difficulty: return to bypass, number of patients", "setting": "[3]; 0.05 mg/kg/min, n=41", "result": 0, "unit": "patients"}, {"measurement": "Weaning difficulty: pacemaker, number of patients", "setting": "[3]; 0.05 mg/kg/min, n=41", "result": 4, "unit": "patients"}, {"measurement": "Weaning difficulty: other, number of patients", "setting": "[3]; 0.05 mg/kg/min, n=41", "result": 3, "unit": "patients"}, {"measurement": "Weaning difficulty: vasopressors, number of patients", "setting": "[3]; 0.05 mg/kg/min, n=41, placebo 8", "result": 3, "unit": "patients"}, {"measurement": "Patients with any difficulty weaning, number", "setting": "[3]; 0.05 mg/kg/min, n=41, p=0.17", "result": 7, "unit": "patients"}, {"measurement": "Weaning difficulty: vasopressors", "setting": "[3]; 0.05 mg/kg/min, n=41, placebo 21.6%", "result": 7.3, "unit": "%"}, {"measurement": "Patients with any difficulty weaning", "setting": "[3]; 0.05 mg/kg/min, n=41, placebo 35%, p=0.17", "result": 17, "unit": "%"}, {"measurement": "Weaning difficulty: other", "setting": "[3]; 0.05 mg/kg/min, n=41", "result": 7.3, "unit": "%"}, {"measurement": "Weaning difficulty: pacemaker", "setting": "[3]; 0.05 mg/kg/min, n=41", "result": 9.8, "unit": "%"}, {"measurement": "Weaning time (cross-clamp removal to termination of bypass)", "setting": "[3]; 0.05 mg/kg/min, patients with difficulty, placebo 31.8 +/- 6.3", "result": "20 +/- 4.6"}, {"measurement": "Weaning time (cross-clamp removal to termination of bypass)", "setting": "[3]; 0.1 mg/kg/min, n=34, all patients, placebo 23 +/- 2.9", "result": "17 +/- 1.8"}, {"measurement": "Weaning difficulty: balloon pump, number of patients", "setting": "[3]; 0.10 mg/kg/min, n=35", "result": 0, "unit": "patients"}, {"measurement": "Weaning difficulty: return to bypass, number of patients", "setting": "[3]; 0.10 mg/kg/min, n=35", "result": 0, "unit": "patients"}, {"measurement": "Weaning difficulty: pacemaker, number of patients", "setting": "[3]; 0.10 mg/kg/min, n=35", "result": 4, "unit": "patients"}, {"measurement": "Weaning difficulty: other, number of patients", "setting": "[3]; 0.10 mg/kg/min, n=35", "result": 4, "unit": "patients"}, {"measurement": "Weaning difficulty: vasopressors, number of patients", "setting": "[3]; 0.10 mg/kg/min, n=35, placebo 8", "result": 4, "unit": "patients"}, {"measurement": "Patients with any difficulty weaning, number", "setting": "[3]; 0.10 mg/kg/min, n=35, p=0.17", "result": 8, "unit": "patients"}, {"measurement": "Weaning difficulty: vasopressors", "setting": "[3]; 0.10 mg/kg/min, n=35, placebo 21.6%", "result": 11.4, "unit": "%"}, {"measurement": "Patients with any difficulty weaning", "setting": "[3]; 0.10 mg/kg/min, n=35, placebo 35%, p=0.17", "result": 23, "unit": "%"}, {"measurement": "Weaning difficulty: other", "setting": "[3]; 0.10 mg/kg/min, n=35", "result": 11.4, "unit": "%"}, {"measurement": "Weaning difficulty: pacemaker", "setting": "[3]; 0.10 mg/kg/min, n=35", "result": 11.4, "unit": "%"}, {"measurement": "Weaning time (cross-clamp removal to termination of bypass)", "setting": "[3]; 0.1 mg/kg/min, patients with difficulty, placebo 31.8 +/- 6.3", "result": "20.8 +/- 4.2"}, {"measurement": "Patients with any difficulty weaning, number", "setting": "[3]; 0.05 + 0.10 mg/kg/min combined, n=76, p=0.06", "result": 15, "unit": "patients"}, {"measurement": "Patients with any difficulty weaning", "setting": "[3]; 0.05 + 0.10 mg/kg/min combined, n=76, placebo 35.1%, p=0.06", "result": 19.7, "unit": "%"}, {"measurement": "Vasopressors required, number of patients", "setting": "[3]; 0.05 + 0.10 mg/kg/min combined, placebo 8, p=0.08", "result": 7, "unit": "patients"}, {"measurement": "Vasopressors required", "setting": "[3]; 0.05 + 0.10 mg/kg/min combined, placebo 21.6%, p=0.08", "result": 9.2, "unit": "%"}, {"measurement": "Need for vasopressor support vs placebo", "setting": "[3]; low and high dose groups, p=0.19 separately, p=0.08 combined", "result": "strong trend towards a reduced need for vasopressor support; also recorded: less likely to receive vasopressor assistance"}, {"measurement": "Weaning difficulty vs placebo", "setting": "[3]; p=0.17 when compared separately, p=0.06 combined dose groups", "result": "towards a reduction in weaning difficulty in the drug treated groups"}]}
